# From PubChem BioAssay AID1745844 (Carcinogenic Potency Database (CPDB), 2022)
# The source made the active and inactive calls. The rule behind the calls is not given here.
# Test system: rodent lifetime carcinogenesis bioassay, tumor incidence TD50
# Assay: chronic cancer bioassays in animals – CPDB, compiled studies (AID 1745844)
# [1] = mouse, strain B6C3F1, females, in feed, site: any site (literature study), lesion: several types, types named in the paper, dosed 103 weeks, study length 104 weeks
# [2] = mouse, strain B6C3F1, females, in feed, site: lung, lesion: alveolar/bronchiolar adenoma + alveolar/bronchiolar carcinoma, dosed 103 weeks, study length 104 weeks
compound,measurement,setting,value
O=S(=O)(O)c1ccc(N=Nc2c(O)ccc3cc(S(=O)(=O)O)ccc23)cc1,carcinogen call,[1],negative (inactive)
same,TD50,[2],66400 mg/kg/day
same,TD50,"mouse, strain B6C3F1, males, in feed, site: any site (literature study), lesion: several types, types named in the paper, dosed 103 weeks, study length 103 weeks",17800 mg/kg/day
same,TD50,"mouse, strain B6C3F1, males, in feed, site: liver, lesion: hepatocellular adenoma + hepatocellular carcinoma + neoplastic nodule, dosed 103 weeks, study length 103 weeks",14200 mg/kg/day
same,TD50,"mouse, strain B6C3F1, males, in feed, site: skin, lesion: fibrosarcoma + fibroma, dosed 103 weeks, study length 103 weeks",37500 mg/kg/day (inactive)
same,carcinogen call,"mouse, strain Charles River CD (Sprague-Dawley), females, in feed, site: liver, lesion: one or several types, types not named, dosed 80 weeks, study length 80 weeks",negative (inactive)
same,carcinogen call,"mouse, strain Charles River CD (Sprague-Dawley), females, in feed, site: lung, lesion: adenoma, dosed 80 weeks, study length 80 weeks",negative (inactive)
same,carcinogen call,"mouse, strain Charles River CD (Sprague-Dawley), males, in feed, site: liver, lesion: one or several types, types not named, dosed 80 weeks, study length 80 weeks",negative (inactive)
same,carcinogen call,"mouse, strain Charles River CD (Sprague-Dawley), males, in feed, site: lung, lesion: adenoma, dosed 80 weeks, study length 80 weeks",negative (inactive)
same,TD50,"rat, strain Fischer 344, females, in feed, site: any site (literature study), lesion: several types, types named in the paper, dosed 103 weeks, study length 104 weeks",9060 mg/kg/day (inactive)
same,TD50,"rat, strain Fischer 344, males, in feed, site: any site (literature study), lesion: several types, types named in the paper, dosed 103 weeks, study length 104 weeks",11800 mg/kg/day (inactive)
same,TD50,"rat, strain Fischer 344, males, in feed, site: liver, lesion: hepatocellular adenoma + hepatocellular carcinoma + neoplastic nodule, dosed 103 weeks, study length 104 weeks",2520 mg/kg/day
same,TD50,"rat, strain Not specified, females, in feed, site: any site (literature study), lesion: several types, types named in the paper, dosed 64 weeks, study length 64 weeks",87.4 mg/kg/day (inactive)
same,carcinogen call,"rat, strain Not specified, females, in feed, site: liver, lesion: one or several types, types not named, dosed 64 weeks, study length 64 weeks",negative (inactive)
same,TD50,"rat, strain Not specified, males, in feed, site: any site (literature study), lesion: several types, types named in the paper, dosed 64 weeks, study length 64 weeks",14000 mg/kg/day (inactive)
same,carcinogen call,"rat, strain Not specified, males, in feed, site: liver, lesion: one or several types, types not named, dosed 64 weeks, study length 64 weeks",negative (inactive)
CC(=O)[O-].CC(=O)[O-].[Cd+2],carcinogen call,"mouse, strain Charles River CD1, females, in drinking water, site: any site (literature study), lesion: one or several types, types not named, dosed 130 weeks, study length 130 weeks",negative (inactive)
same,carcinogen call,"mouse, strain Charles River CD1, females, in drinking water, site: lung, lesion: carcinoma, dosed 130 weeks, study length 130 weeks",negative (inactive)
same,carcinogen call,"mouse, strain Charles River CD1, males, in drinking water, site: any site (literature study), lesion: one or several types, types not named, dosed 120 weeks, study length 120 weeks",negative (inactive)
same,carcinogen call,"mouse, strain Charles River CD1, males, in drinking water, site: lung, lesion: carcinoma, dosed 120 weeks, study length 120 weeks",negative (inactive)
same,TD50,"rat, strain Long-Evans BLU:(LE), both sexes, in drinking water, site: any site (literature study), lesion: malignant tumor, dosed 175 weeks, study length 175 weeks",5.1 mg/kg/day (inactive)
same,TD50,"rat, strain Long-Evans BLU:(LE), both sexes, in drinking water, site: any site (literature study), lesion: one or several types, types not named, dosed 175 weeks, study length 175 weeks",1.81 mg/kg/day (inactive)
same,TD50,"rat, strain Long-Evans BLU:(LE), both sexes, in drinking water, site: liver, lesion: one or several types, types not named, dosed 175 weeks, study length 175 weeks",37.7 mg/kg/day (inactive)
O=C[C@H](NC(=O)N(CCCl)N=O)[C@@H](O)[C@H](O)[C@H](O)CO,TD50,"rat, strain Sprague-Dawley, females, i.p., site: any site (literature study), lesion: malignant tumor, dosed 88 weeks, study length 114 weeks",0.108 mg/kg/day
same,TD50,"rat, strain Sprague-Dawley, females, i.p., site: peritoneal cavity, lesion: several types, types named in the paper, dosed 88 weeks, study length 114 weeks",0.0844 mg/kg/day
same,TD50,"rat, strain Sprague-Dawley, males, i.p., site: any site (literature study), lesion: malignant tumor, dosed 77 weeks, study length 100 weeks",0.0521 mg/kg/day
same,TD50,"rat, strain Sprague-Dawley, males, i.p., site: peritoneal cavity, lesion: several types, types named in the paper, dosed 77 weeks, study length 100 weeks",0.0241 mg/kg/day
COc1ccc(N)c(OC)c1,TD50,[1],986 mg/kg/day (inactive)
same,TD50,"mouse, strain B6C3F1, females, in feed, site: liver, lesion: hepatocellular adenoma + hepatocellular carcinoma + neoplastic nodule, dosed 103 weeks, study length 104 weeks",2790 mg/kg/day
same,TD50,[2],50600 mg/kg/day
same,TD50,"mouse, strain B6C3F1, males, in feed, site: any site (literature study), lesion: several types, types named in the paper, dosed 103 weeks, study length 104 weeks",1650 mg/kg/day (inactive)
same,TD50,"mouse, strain B6C3F1, males, in feed, site: liver, lesion: hepatocellular adenoma + hepatocellular carcinoma + neoplastic nodule, dosed 103 weeks, study length 104 weeks",1390 mg/kg/day
same,carcinogen call,"rat, strain Fischer 344, females, in feed, site: any site (literature study), lesion: several types, types named in the paper, dosed 104 weeks, study length 105 weeks",negative (inactive)
same,carcinogen call,"rat, strain Fischer 344, males, in feed, site: any site (literature study), lesion: several types, types named in the paper, dosed 104 weeks, study length 105 weeks",negative (inactive)
O=C(CCl)c1ccccc1,TD50,"mouse, strain B6C3F1, females, inhaled, site: any site (literature study), lesion: several types, types named in the paper, dosed 103 weeks, study length 105 weeks",4.31 mg/kg/day (inactive)
same,TD50,"mouse, strain B6C3F1, females, inhaled, site: lung, lesion: alveolar/bronchiolar adenoma + alveolar/bronchiolar carcinoma, dosed 103 weeks, study length 105 weeks",33.4 mg/kg/day
same,TD50,"mouse, strain B6C3F1, males, inhaled, site: any site (literature study), lesion: several types, types named in the paper, dosed 103 weeks, study length 106 weeks",2.69 mg/kg/day (inactive)
same,TD50,"mouse, strain B6C3F1, males, inhaled, site: liver, lesion: hepatocellular adenoma + hepatocellular carcinoma + neoplastic nodule, dosed 103 weeks, study length 106 weeks",5.24 mg/kg/day
same,TD50,"mouse, strain B6C3F1, males, inhaled, site: lung, lesion: alveolar/bronchiolar adenoma + alveolar/bronchiolar carcinoma, dosed 103 weeks, study length 106 weeks",10.4 mg/kg/day
same,TD50,"rat, strain Fischer 344, females, inhaled, site: any site (literature study), lesion: several types, types named in the paper, dosed 103 weeks, study length 105 weeks",0.859 mg/kg/day
same,TD50,"rat, strain Fischer 344, females, inhaled, site: mammary gland, lesion: adenocarcinoma + adenoma + fibroadenoma, dosed 103 weeks, study length 105 weeks",0.224 mg/kg/day
same,TD50,"rat, strain Fischer 344, females, inhaled, site: mammary gland, lesion: adenoma + fibroadenoma, dosed 103 weeks, study length 105 weeks",0.208 mg/kg/day
same,TD50,"rat, strain Fischer 344, females, inhaled, site: mammary gland, lesion: fibroadenoma, dosed 103 weeks, study length 105 weeks",0.211 mg/kg/day
same,carcinogen call,"rat, strain Fischer 344, males, inhaled, site: any site (literature study), lesion: several types, types named in the paper, dosed 103 weeks, study length 105 weeks",negative (inactive)
